Data as given in US12233144B2, “Method for stabilizing retinoic acid precursors and a skin benefit composition with stabilized retinoic acid precursors” (Conopco, Inc., priority 2016, dated 2025).
Read-outs that look alike come from different tables or passages of the source.

Legend:
[1] = Storage stability of retinoic acid precursor (RAP) in caprylic capric triglyceride at 45° C, RAP amount by HPLC; assay type: physicochemical; conditions: for Initial RAP Concentration, Week 0 / RAP Concentration, Week 1 / RAP Concentration, Week 4 / RAP Concentration, Week 20: Example 1, caprylic capric triglyceride carrier, storage 45° C, ER 0.35% where present
Procedure: Compositions were prepared with caprylic capric triglyceride as the carrier to 100%. Storage was maintained at 45° C. Assessment of RAP amount in the formulae was achieved via HPLC using ASTM Standards. […]

[2] = as above; assay type: physicochemical; conditions: Example 3; RAP alone, no SBA (ratio —)

Row | Structure (SMILES) | Effect on stability of the RAPs (in words) [1] | Week 4 % Remaining [1] [%] | Week 20 % Remaining [1] [%] | Initial RAP Concentration, Week 0 [1] [%] | RAP Concentration, Week 1 [1] | RAP Concentration, Week 4 [1] [%] | RAP Concentration, Week 20 [1] [%] | Week 4 % Remaining ([1]; 4 week, 0.1 %) [%] | Week 20 % Remaining ([1]; 20 week, 0.1 %) [%] | Week 0 Concentration [2] | Week 1 Concentration [2] | Week 4 Concentration [2]
1 | CCc1ccc(O)cc1O [4-ethyl resorcinol] | improves the stability of the RAPs by preventing oxidation | – | – | – | – | – | – | – | – | – | – | –
2 | COc1ccc(C(=O)COC(=O)\C=C(C)/C=C/C=C(C)/C=C/C2=C(C)CCCC2(C)C)cc1 [Retextra ®, hydroxyanasatil retinoate] | – | 0 | 0 | 0.36 | 0.14% | 0 | 0 | – | – | – | – | –
3 | CC1=C(/C=C/C(C)=C/C=C/C(C)=C/CO)C(C)(C)CCC1 [Retinol] | – | – | – | 0.1 | 0.042% | 0.001 | 0 | 1 | 0 | 0.1 | 0.042 | 0.001
4 | CCC(=O)OC/C=C(C)/C=C/C=C(C)/C=C/C1=C(C)CCCC1(C)C [Retinyl Propionate] | – | 84 | 0 | 0.38 | No | 0.32 | 0 | – | – | 0.38 | 0.38 | 0.32
